Marks after values point to notes of the source that are not given here.
Test system: non-narcotized SHT rats
Test: Blood pressure in non-narcotized SHT rats, intragastric administration (non-invasive BP measurement)
Format: in vivo, rat
Method: In experiments on non-narcotized SHT rats intragastric administration of the compound of formula I has caused dose-dependent reduction of BP, the duration of which was increased correspondingly with dose increase (maximal duration of effect 5 hours after single administration of 50 mg/kg dose, Table 3).

CN1CC(CO)O/C1=C(C#N)/C=C1/Nc2ccccc2C1=O (stereo not shown) [Compound I, 2-[2-Cyano-2-[5-(hydroxymethyl)-3-methyl-1,3-oxazolidin-2-ylidene]ethylidene]indolin-3-one]
Reduction of BP, mmHg (1 mg/kg orally, time column 1 (hours), 1 h after dosing): 20* mmHg
Reduction of BP, mmHg (1 mg/kg orally, time column 2, 2 h after dosing): 10 mmHg
Reduction of BP, mmHg (1 mg/kg orally, time column 3, 0 - absence of effect, 3 h after dosing): 0 mmHg
Reduction of BP, mmHg (1 mg/kg orally, time column 4, 0 - absence of effect, 4 h after dosing): 0 mmHg
Reduction of BP, mmHg (1 mg/kg orally, time column 5, 0 - absence of effect, 5 h after dosing): 0 mmHg
Reduction of BP, mmHg (1 mg/kg orally, time column 6, 0 - absence of effect, 6 h after dosing): 0 mmHg
Reduction of BP, mmHg (5 mg/kg orally, time column 1, 1 h after dosing): 17* mmHg
Reduction of BP, mmHg (5 mg/kg orally, time column 2, 2 h after dosing): 20* mmHg
Reduction of BP, mmHg (5 mg/kg orally, time column 3, 3 h after dosing): 32* mmHg
Reduction of BP, mmHg (5 mg/kg orally, time column 4, 4 h after dosing): 30* mmHg
Reduction of BP, mmHg (5 mg/kg orally, time column 5, 5 h after dosing): 15 mmHg
Reduction of BP, mmHg (5 mg/kg orally, time column 6, 0 - absence of effect, 6 h after dosing): 0 mmHg
Reduction of BP, mmHg (10 mg/kg orally, time column 1, 0 - absence of effect, 1 h after dosing): 23* mmHg
Reduction of BP, mmHg (10 mg/kg orally, time column 2, 0 - absence of effect, 2 h after dosing): 30* mmHg
Reduction of BP, mmHg (10 mg/kg orally, time column 3, 0 - absence of effect, 3 h after dosing): 37 mmHg
Reduction of BP, mmHg (10 mg/kg orally, time column 4, 0 - absence of effect, 4 h after dosing): 35 mmHg
Reduction of BP, mmHg (10 mg/kg orally, time column 5, 0 - absence of effect, 5 h after dosing): 17* mmHg
Reduction of BP, mmHg (10 mg/kg orally, time column 6, 0 - absence of effect, 6 h after dosing): 0 mmHg
Reduction of BP, mmHg (25 mg/kg orally, time column 1, 1 h after dosing): 26* mmHg
Reduction of BP, mmHg (25 mg/kg orally, time column 2, 2 h after dosing): 32* mmHg
Reduction of BP, mmHg (25 mg/kg orally, time column 3, 3 h after dosing): 45* mmHg
Reduction of BP, mmHg (25 mg/kg orally, time column 4, 4 h after dosing): 45* mmHg
Reduction of BP, mmHg (25 mg/kg orally, time column 5, 5 h after dosing): 25* mmHg
Reduction of BP, mmHg (25 mg/kg orally, time column 6, 0 - absence of effect, 6 h after dosing): 0 mmHg
Reduction of BP, mmHg (50 mg/kg orally, time column 1, 1 h after dosing): 25* mmHg
Reduction of BP, mmHg (50 mg/kg orally, time column 2, 2 h after dosing): 42* mmHg
Reduction of BP, mmHg (50 mg/kg orally, time column 3, 3 h after dosing): 50* mmHg
Reduction of BP, mmHg (50 mg/kg orally, time column 4, 4 h after dosing): 50* mmHg
Reduction of BP, mmHg (50 mg/kg orally, time column 5, 5 h after dosing): 25* mmHg
Reduction of BP, mmHg (50 mg/kg orally, time column 6, 0 - absence of effect, 6 h after dosing): 0 mmHg
Maximal duration of BP-reducing effect (single intragastric administration of 50 mg/kg dose): 5 h
